Measured values as given in US9365522B2, “Pyrazole amide derivative” (AMGEN INC., priority 2015, dated 2016).

Molecular target: T1, ligand binding domain of human ROR gamma (Homo sapiens, UniProt P51449)
T1 construct: NM_001001523; expressed in transfected cells; host or cells: HEK293T
T1 sequence (P51449 247-497 isoform P51449-2): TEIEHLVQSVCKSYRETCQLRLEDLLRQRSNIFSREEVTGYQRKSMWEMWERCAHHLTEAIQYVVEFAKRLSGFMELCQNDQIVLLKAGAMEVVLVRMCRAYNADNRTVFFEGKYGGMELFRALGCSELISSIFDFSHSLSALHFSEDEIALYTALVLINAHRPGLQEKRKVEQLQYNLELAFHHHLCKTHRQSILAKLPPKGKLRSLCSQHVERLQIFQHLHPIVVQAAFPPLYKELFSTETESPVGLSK
Test: ROR gamma reporter gene assay (GAL4-RORγ LBD luciferase, Dual-Glo)
Type: cell-based
Conditions: HEK293T cells transfected with pM-ROR gamma, 8 concentrations 3.5 nM to 10.5 μM, 24 h incubation; read-out: result (pIC50, inhibition of RORγ transcriptional activity) (converted)
Method: Luciferase reporter gene assay was used to assess inhibition of RORγ transcriptional activity.
ROR gamma expression vector was prepared by inserting the ligand binding domain of human ROR gamma (amino acid 247-497 of Genbank Accession NO. NM_001001523) adjacent to the yeast GAL4 transcription factor DNA binding domain in the expression vector pM (Clontech). The resulting expression vector pM-ROR gamma was used in transfection experiments together with the pGL4 luciferase reporter plasmid (Promega) containing five copies of the UAS GAL4 recognition site and pRL-CMV plasmids (Promega) containing the constitutive CMV promoter and the renilla luciferase.
For preparing transfection reagent/DNA mixture, 1 μg pM-ROR gamma, 1 μg pGL4 5×UAS, 625 pg pRL-CMV and 6.25 μL FuGENE™ HD transfection reagent (Promega) were mixed in 0.25 mL OPTI-MEM™ (Life technologies) at room temperature. At the same time, Negative control DNA mixture was prepared by using 1 μg pM empty vector instead of pM-ROR gamma plasmid. After a fifteen minute incubation, 0.25 mL of transfection reagent/DNA mixture was added to 1,000,000 of HEK293T cells (ATCC) in 5 mL of OPTI-MEM™ containing 10% Charcoal Stripped Fetal Bovine Serum.
Transfected cells were seeded onto 384 well plate (10 μL/well) and the 7.5 nL of test compounds were added to the wells in 8 concentrations ranging from 3.5 nM to 10.5 μM. The compounds were dissolved in 100% DMSO and the final concentration of DMSO in the assay was 0.075%.
After 24 h of incubation at 37° C., 5% CO2 in a cell culture incubator, the Dual-Glo™ Luciferase Assay System was used to detect activity according to the manufacturer's instructions (Promega, Cat. No.: E2920).
Data was plotted and pIC50 values were calculated using the XLfit program (ID Business Solutions Ltd.).

Structure (SMILES) | IC50 [pM]
CC(CN(Cc1cc(F)cc(F)c1)C(=O)c1cnn([C@H]2CC[C@H](C(=O)O)CC2)c1C(F)(F)F)c1c(Cl)cccc1Cl (stereo partly drawn) [Example 108, trans-4-(4-(2-(2,6-dichlorophenyl)propyl-((3,5-difluorophenyl)methyl)carbamoyl)-5-(trifluoromethyl)pyrazol-1-yl)cyclohexane-1-carboxylic acid] | 324000
O=C(CN(Cc1ccc(F)cc1)C(=O)c1cnn(C23CCC(C(=O)O)(CC2)C3)c1C(F)(F)F)c1c(Cl)cncc1Cl [Example 177, 4-(4-((2-(3,5-dichloropyridin-4-yl)-2-oxoethyl)-((4-fluorophenyl)methyl)carbamoyl)-5-(trifluoromethyl)pyrazol-1-yl)bicyclo[2.2.1]heptane-1-carboxylic acid] | 141000
CC(C)(CN(Cc1cc(F)cc(F)c1)C(=O)c1cnn([C@H]2CC[C@H](C(=O)O)CC2)c1C(F)(F)F)c1c(Cl)cccc1Cl [Example 118, trans-4-(4-((2-(2,6-dichlorophenyl)-2-methylpropyl)-((3,5-difluorophenyl)methyl)carbamoyl)-5-(trifluoromethyl)pyrazol-1-yl)cyclohexane-1-carboxylic acid] | 1.74e+06
N#Cc1ccccc1CN(CC(=O)c1c(Cl)cncc1Cl)C(=O)c1cnn([C@H]2CC[C@H](C(=O)O)CC2)c1C(F)(F)F [Example 22, trans-4-(4-((2-cyanobenzyl)(2-(3,5-dichloropyridin-4-yl)-2-oxoethyl)carbamoyl)-5-(trifluoromethyl)-1H-pyrazol-1-yl)cyclohexanecarboxylic acid] | > 1e+07
CC(C)(F)CN(CC(=O)c1c(Cl)cncc1Cl)C(=O)c1cnn([C@H]2CC[C@H](C(=O)O)CC2)c1C(F)(F)F [Example 73, trans-4-(4-((2-(3,5-dichloropyridin-4-yl)-2-oxoethyl)(2-fluoro-2-methylpropyl)carbamoyl)-5-(trifluoromethyl)-1H-pyrazol-1-yl)cyclohexanecarboxylic acid] | 646000
O=C(CN(C(=O)c1cnn([C@H]2CC[C@H](C(=O)O)CC2)c1C(F)(F)F)[C@H]1C[C@@H]1c1ccccc1)c1c(Cl)cncc1Cl [Example 161, trans-4-(4-((2-(3,5-dichloropyridin-4-yl)-2-oxoethyl)-((1S,2R)-2-phenylcyclopropyl)carbamoyl)-5-(trifluoromethyl)pyrazol-1-yl)cyclohexane-1-carboxylic acid] | 2.19e+06
CC(C)N1C2CCC1CC(N(CC(=O)c1c(Cl)cc(F)cc1Cl)C(=O)c1cnn([C@H]3CC[C@](C)(C(=O)O)CC3)c1C(F)(F)F)C2 (stereo partly drawn) [Example 305, trans-4-(4-((2-(2,6-dichloro-4-fluorophenyl)-2-oxoethyl)-(8-propan-2-yl-8-azabicyclo[3.2.1]octan-3-yl)carbamoyl)-5-(trifluoromethyl)pyrazol-1-yl)-1-methylcyclohexane-1-carboxylic acid] | > 1.05e+07
CC(=O)N1CC(N(CC(=O)c2c(Cl)cncc2Cl)C(=O)c2cnn([C@H]3CC[C@H](C(=O)O)CC3)c2C(F)(F)F)C1 [Example 172, trans-4-(4-((1-acetylazetidin-3-yl)-(2-(3,5-dichloropyridin-4-yl)-2-oxoethyl)carbamoyl)-5-(trifluoromethyl)pyrazol-1-yl)cyclohexane-1-carboxylic acid] | > 1e+07
CC(C)(C)OCCN(CC(=O)c1c(Cl)cc(F)cc1Cl)C(=O)c1cnn([C@H]2CC[C@](C)(C(=O)O)CC2)c1C(F)(F)F [Example 292, trans-4-(4-((2-(2,6-dichloro-4-fluorophenyl)-2-oxoethyl)-(2-((2-methylpropan-2-yl)oxy)ethyl)carbamoyl)-5-(trifluoromethyl)pyrazol-1-yl)-1-methylcyclohexane-1-carboxylic acid] | 47900
O=C(CN(Cc1ccccc1O)C(=O)c1cnn([C@H]2CC[C@H](C(=O)O)CC2)c1C(F)(F)F)c1c(Cl)cncc1Cl [Example 147, trans-4-(4-((2-(3,5-dichloropyridin-4-yl)-2-oxoethyl)-((2-hydroxyphenyl)methyl)carbamoyl)-5-(trifluoromethyl)pyrazol-1-yl)cyclohexane-1-carboxylic acid] | 347000
CCC(C)(C)CN(CC(=O)c1c(Cl)cc(Cl)cc1Cl)C(=O)c1cnn(C23CCC(C(=O)O)(CC2)CC3)c1C(F)(F)F [Example 308, 4-(4-(2,2-dimethylbutyl-(2-oxo-2-(2,4,6-trichlorophenyl)ethyl)carbamoyl)-5-(trifluoromethyl)pyrazol-1-yl)bicyclo[2.2.2]octane-1-carboxylic acid] | 16600
CC(C)(C)CN(CC(=O)c1c(Cl)cc(Cl)cc1Cl)C(=O)c1cnn(C23CCC(C(=O)O)(CC2)CC3)c1C(F)(F)F [Example 246, 4-(4-(2,2-dimethylpropyl-(2-oxo-2-(2,4,6-trichlorophenyl)ethyl)carbamoyl)-5-(trifluoromethyl)pyrazol-1-yl)bicyclo[2.2.2]octane-1-carboxylic acid] | 11500
CC1(C)CC(CN(CC(=O)c2c(Cl)cc(Cl)cc2Cl)C(=O)c2cnn(C34CCC(C(=O)O)(CC3)CC4)c2C(F)(F)F)C1 [Example 256, 4-(4-((3,3-dimethylcyclobutyl)methyl-(2-oxo-2-(2,4,6-trichlorophenyl)ethyl)carbamoyl)-5-(trifluoromethyl)pyrazol-1-yl)bicyclo[2.2.2]octane-1-carboxylic acid] | 6030

Now from value to molecule:

IC50 [pM] | Structure (SMILES)
13500 | CC12CCC(CN(CC(=O)c3c(Cl)cncc3Cl)C(=O)c3cnn([C@H]4CC[C@](C)(C(=O)O)CC4)c3C(F)(F)F)(CC1)C2 [Example 267, trans-4-(4-((2-(3,5-dichloropyridin-4-yl)-2-oxoethyl)-((1-methyl-4-bicyclo[2.2.1]heptanyl)methyl)carbamoyl)-5-(trifluoromethyl)pyrazol-1-yl)-1-methylcyclohexane-1-carboxylic acid]
30200 | CC1(C)[C@@H]2C[C@H](N(CC(=O)c3c(Cl)cncc3Cl)C(=O)c3cnn([C@H]4CC[C@](C)(C(=O)O)CC4)c3Cl)C[C@@H]21 [Example 367, trans-4-(5-chloro-4-((2-(3,5-dichloropyridin-4-yl)-2-oxoethyl)((1R,3r,5S)-6,6-dimethylbicyclo[3.1.0]hexan-3-yl)carbamoyl)-1H-pyrazol-1-yl)-1-methylcyclohexanecarboxylic acid]
> 1.05e+07 | CN1C(C)(C)CC(N(CC(=O)c2c(Cl)cncc2Cl)C(=O)c2cnn([C@H]3CC[C@](C)(C(=O)O)CC3)c2C(F)(F)F)CC1(C)C [Example 311, trans-4-(4-((2-(3,5-dichloropyridin-4-yl)-2-oxoethyl)-(1,2,2,6,6-pentamethylpiperidin-4-yl)carbamoyl)-5-(trifluoromethyl)pyrazol-1-yl)-1-methylcyclohexane-1-carboxylic acid]
776000 | CC1(C)[C@@H]2C[C@H](N(CC(N)c3c(F)cccc3Cl)C(=O)c3cnn([C@H]4CC[C@](C)(C(=O)O)CC4)c3C(F)(F)F)C[C@@H]21 (stereo partly drawn) [Example 409, trans-4-(4-((2-amino-2-(2-chloro-6-fluorophenyl)ethyl)((1R,3r,5S)-6,6-dimethylbicyclo[3.1.0]hexan-3-yl)carbamoyl)-5-(trifluoromethyl)-1H-pyrazol-1-yl)-1-methylcyclohexanecarboxylic acid]
1.23e+06 | CC1(C)[C@@H]2C[C@H](N(C[C@@H](O)c3ccccc3Cl)C(=O)c3cnn([C@H]4CC[C@](C)(C(=O)O)CC4)c3C(F)(F)F)C[C@@H]21 [Example 369, trans-4-(4-((2-(2-chlorophenyl)-2-hydroxyethyl)((1R,3r,5S)-6,6-dimethylbicyclo[3.1.0]hexan-3-yl)carbamoyl)-5-(trifluoromethyl)-1H-pyrazol-yl)-1-methylcyclohexanecarboxylic acid]
347000 | CC1(C)[C@@H]2C[C@H](N(C[C@@H](O)c3c(F)cncc3Cl)C(=O)c3cnn([C@H]4CC[C@](C)(C(=O)O)CC4)c3C(F)(F)F)C[C@@H]21 [Example 384, trans-4-(4-((2-(3-chloro-5-fluoropyridin-4-yl)-2-hydroxyethyl)((1R,3r,5S)-6,6-dimethylbicyclo[3.1.0]hexan-3-yl)carbamoyl)-5-(trifluoromethyl)-1H-pyrazol-1-yl)-1-methylcyclohexanecarboxylic acid]
